Species on record: Rattus norvegicus
Test: DrugMatrix - Regimen: Daily Repeat
Assay type: toxicity, organism-based, Sprague-Dawley
Set-up: regimen Daily Repeat, gender Male, age 6-8 weeks
Conditions: in vivo, po, route oral GAVAGE, vehicle 100 % WATER; for ABSOLUTE BASOPHIL / ABSOLUTE EOSINOPHIL / ABSOLUTE LYMPHOCYTE / ABSOLUTE MONOCYTE / ABSOLUTE SEGMENTED NEUTROPHIL / BASOPHIL / EOSINOPHIL / ERYTHROCYTE COUNT / HEMATOCRIT / HEMOGLOBIN / LEUKOCYTE COUNT / LYMPHOCYTE / MEAN CORPUSCULAR HEMOGLOBIN / MEAN CORPUSCULAR HEMOGLOBIN CONCENTRATION / MEAN CORPUSCULAR VOLUME / MONOCYTE / NEUTROPHIL / NUCLEATED RED BLOOD CELLS / PLATELET COUNT: tissue Blood; for ALANINE AMINOTRANSFERASE / ALBUMIN / ALKALINE PHOSPHATASE / ASPARTATE AMINOTRANSFERASE / BLOOD UREA NITROGEN / CARBON DIOXIDE / CHLORIDE / CHOLESTEROL / CREATINE PHOSPHOKINASE / CREATININE / GLUCOSE / LACTATE DEHYDROGENASE / LIPASE / PHOSPHORUS / POTASSIUM / SODIUM / TOTAL BILIRUBIN / TOTAL PROTEIN / URIC ACID: tissue Plasma
[1] = 0 mg/kg, 72 h, dose level Control, time 3 day
[2] = 0 mg/kg, 120 h, dose level Control, time 5 day
[3] = 100 mg/kg, 72 h, dose level Low, time 3 day

## NC(=O)c1cccnc1 [NIACINAMIDE]
[1]
  ABSOLUTE BASOPHIL: 0 CELLS/uL
  ABSOLUTE EOSINOPHIL: 46 CELLS/uL
  ABSOLUTE LYMPHOCYTE: 10225.67 CELLS/uL
  ABSOLUTE MONOCYTE: 319.33 CELLS/uL
  ABSOLUTE SEGMENTED NEUTROPHIL: 1242.33 CELLS/uL
  BASOPHIL: 0%
  EOSINOPHIL: 0.33%
  ERYTHROCYTE COUNT: 5.17 x10E6/uL
  HEMATOCRIT: 33.43%
  HEMOGLOBIN: 12.55 G/DL
  LEUKOCYTE COUNT: 11.83 x10E3/uL
  LYMPHOCYTE: 86.5%
  MEAN CORPUSCULAR HEMOGLOBIN: 24.35 pg
  MEAN CORPUSCULAR HEMOGLOBIN CONCENTRATION: 37.57 G/DL
  MEAN CORPUSCULAR VOLUME: 64.8 fL
  MONOCYTE: 2.67%
  NEUTROPHIL: 10.5%
  NUCLEATED RED BLOOD CELLS: 0.17 /100WBC
  PLATELET COUNT: 1026.17 x10E3/uL
  ALANINE AMINOTRANSFERASE: 52.67 u/L
  ALBUMIN: 4.17 G/DL
  ALKALINE PHOSPHATASE: 331 u/L
  ASPARTATE AMINOTRANSFERASE: 92.33 u/L
  BLOOD UREA NITROGEN: 15.33 mg/dL
  CARBON DIOXIDE: 26.17 mmol/L
  CHLORIDE: 103.17 MEQ/L
  CHOLESTEROL: 73.67 mg/dL
  CREATINE PHOSPHOKINASE: 472.83 u/L
  CREATININE: 0.29 mg/dL
  GLUCOSE: 178.5 mg/dL
  LACTATE DEHYDROGENASE: 244.83 u/L
  LIPASE: 10.67 u/L
  PHOSPHORUS: 12.45 mg/dL
  POTASSIUM: 6.35 MEQ/L
  SODIUM: 144.27 MEQ/L
  TOTAL BILIRUBIN: 0.13 mg/dL
  TOTAL PROTEIN: 5.77 G/DL
  URIC ACID: 2.08 mg/dL
[2]
  ABSOLUTE BASOPHIL: 0 CELLS/uL
  ABSOLUTE EOSINOPHIL: 23.5 CELLS/uL
  ABSOLUTE LYMPHOCYTE: 12797.33 CELLS/uL
  ABSOLUTE MONOCYTE: 465.5 CELLS/uL
  ABSOLUTE SEGMENTED NEUTROPHIL: 1313.67 CELLS/uL
  BASOPHIL: 0%
  EOSINOPHIL: 0.17%
  ERYTHROCYTE COUNT: 5.76 x10E6/uL
  HEMATOCRIT: 36.72%
  HEMOGLOBIN: 13.72 G/DL
  LEUKOCYTE COUNT: 14.6 x10E3/uL
  LYMPHOCYTE: 87.5%
  MEAN CORPUSCULAR HEMOGLOBIN: 23.8 pg
  MEAN CORPUSCULAR HEMOGLOBIN CONCENTRATION: 37.35 G/DL
  MEAN CORPUSCULAR VOLUME: 63.72 fL
  MONOCYTE: 3.17%
  NEUTROPHIL: 9.17%
  NUCLEATED RED BLOOD CELLS: 0.33 /100WBC
  PLATELET COUNT: 1270.67 x10E3/uL
  ALANINE AMINOTRANSFERASE: 50.5 u/L
  ALBUMIN: 4.32 G/DL
  ALKALINE PHOSPHATASE: 339.67 u/L
  ASPARTATE AMINOTRANSFERASE: 88 u/L
  BLOOD UREA NITROGEN: 17 mg/dL
  CARBON DIOXIDE: 25 mmol/L
  CHLORIDE: 103.83 MEQ/L
  CHOLESTEROL: 71.33 mg/dL
  CREATINE PHOSPHOKINASE: 281.83 u/L
  CREATININE: 0.26 mg/dL
  GLUCOSE: 161.67 mg/dL
  LACTATE DEHYDROGENASE: 191.17 u/L
  LIPASE: 10.17 u/L
  PHOSPHORUS: 11.72 mg/dL
  POTASSIUM: 6.76 MEQ/L
  SODIUM: 145.17 MEQ/L
  TOTAL BILIRUBIN: 0.2 mg/dL
  TOTAL PROTEIN: 6.15 G/DL
  URIC ACID: 2 mg/dL
[3]
  ABSOLUTE BASOPHIL: 0 CELLS/uL
  ABSOLUTE EOSINOPHIL: 0 CELLS/uL
  ABSOLUTE LYMPHOCYTE: 11521.67 CELLS/uL
  ABSOLUTE MONOCYTE: 217.67 CELLS/uL
  ABSOLUTE SEGMENTED NEUTROPHIL: 794 CELLS/uL
  BASOPHIL: 0%
  EOSINOPHIL: 0%
  ERYTHROCYTE COUNT: 5.92 x10E6/uL
  HEMATOCRIT: 38.23%
  HEMOGLOBIN: 14.33 G/DL
  LEUKOCYTE COUNT: 12.53 x10E3/uL
  LYMPHOCYTE: 92.33%
  MEAN CORPUSCULAR HEMOGLOBIN: 24.2 pg
  MEAN CORPUSCULAR HEMOGLOBIN CONCENTRATION: 37.47 G/DL
  MEAN CORPUSCULAR VOLUME: 64.53 fL
  MONOCYTE: 1.67%
  NEUTROPHIL: 6%
  NUCLEATED RED BLOOD CELLS: 0.33 /100WBC
  PLATELET COUNT: 1202 x10E3/uL
  ALANINE AMINOTRANSFERASE: 47.67 u/L
  ALBUMIN: 4.43 G/DL
  ALKALINE PHOSPHATASE: 308.33 u/L
  ASPARTATE AMINOTRANSFERASE: 89 u/L
  BLOOD UREA NITROGEN: 17.67 mg/dL
  CARBON DIOXIDE: 25.67 mmol/L
  CHLORIDE: 103.67 MEQ/L
  CHOLESTEROL: 87.33 mg/dL
  CREATINE PHOSPHOKINASE: 322 u/L
  CREATININE: 0.26 mg/dL
  GLUCOSE: 158 mg/dL
  LACTATE DEHYDROGENASE: 344 u/L
  LIPASE: 11.67 u/L
  PHOSPHORUS: 13.47 mg/dL
  POTASSIUM: 6.73 MEQ/L
  SODIUM: 147.7 MEQ/L
  TOTAL BILIRUBIN: 0.2 mg/dL
  TOTAL PROTEIN: 6.2 G/DL
  URIC ACID: 2.6 mg/dL

Source: ChEMBL document CHEMBL3885881, “DrugMatrix”
